The target of this experiment is T1, RARα (Homo sapiens, UniProt P10276).
T1 sequence (P10276 1-462): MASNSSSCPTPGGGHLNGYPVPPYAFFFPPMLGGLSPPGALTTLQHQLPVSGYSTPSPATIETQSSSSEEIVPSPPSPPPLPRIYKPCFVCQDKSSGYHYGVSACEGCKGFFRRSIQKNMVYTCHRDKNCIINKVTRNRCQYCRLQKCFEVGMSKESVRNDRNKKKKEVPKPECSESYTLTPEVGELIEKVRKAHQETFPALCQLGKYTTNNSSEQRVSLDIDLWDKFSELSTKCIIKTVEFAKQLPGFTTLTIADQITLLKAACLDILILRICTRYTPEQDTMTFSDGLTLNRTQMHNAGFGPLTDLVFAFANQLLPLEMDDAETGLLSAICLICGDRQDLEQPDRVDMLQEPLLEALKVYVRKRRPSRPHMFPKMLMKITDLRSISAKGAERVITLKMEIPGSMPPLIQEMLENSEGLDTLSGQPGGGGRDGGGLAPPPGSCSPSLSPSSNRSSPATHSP
Put plainly: Ligand Binding Assay, RARα. The source says: Other assays described below, measure the ability of the compounds of the present invention to bind to, and/or activate various retinoid receptor subtypes. When in these assays a compound binds to a given receptor subtype and activates the transcription of a reporter gene through that subtype, then the compound is considered an agonist of that receptor subtype. […] In the below described assays the ability of the compounds to bind to RARα, RARβ, RARγ, RXRα, RXRβ and RXRγ receptors, and the ability or inability of the compounds to activate transcription of a reporter gene through these receptor subtypes can be tested.
A holoreceptor transactivation assay and a ligand binding assay which measure the antagonist/agonist like activity of the compounds of the invention, or their ability to bind to the several retinoid receptor subtypes, respectively, are described in published PCT Application No. WO WO93/11755 (particularly on pages 30-33 and 37-41) published on Jun. 24, 1993, the specification of which is also incorporated herein by reference. A description of the holoreceptor transactivation assay is also provided below.
CV1 cells (5,000 cells/well) were transfected with an RAR, reporter plasmid MTV-TREp-LUC (50 ng) along with one of the RAR expression vectors (10 ng) in an automated 96-well format by the calcium phosphate procedure of Heyman et al. Cell 68, 397-406, (1992). […]

Molecules are shown by their SMILES.

In the case of `CO/N=C1\CCC(C)(C)c2ccc(/N=N/c3ccc(C(=O)O)cc3)cc21` [Compound D4], the equilibrium dissociation constant (Kd) – broadly, the concentration at which binding is half-saturated – turned out to be 1 µM. This counts as single-digit micromolar.

The values above are taken from patent publication US5723666A, “Oxime substituted tetrahydronaphthalene derivatives having retinoid and/or retinoid antagonist-like biological activity” (Allergan, priority 1996, dated 1998).
